Consider 37 molecules from patent US20250353841A1 (BIOGEN MA INC., priority 2022, published 2025).

Broadly, the IC50 is the concentration that gives 50% inhibition. A high value points to weaker potency.

The experiment concerns mutant Huntington (HTT) protein. In words: HTT Mutant HTRF iPSC assay (mHTT protein lowering). In kind it is cell-based. The conditions noted are these: human iPSC derived from a HTT patient with a poly-Q49 mutation. For orientation: In TR-FRET formats the signal depends on donor and acceptor labels being close together.
With `Cc1cn2nc(-c3cc(F)c4[nH]c(C5CCNCC5)nc4c3)cc(C)c2n1` [Compound 140, 6-(7-fluoro-2-(piperidin-4-yl)-1H-benzo[d]imidazol-5-yl)-2,8-dimethylimidazo[1,2-b]pyridazine], the IC50 was below 100 nM.
`Cc1cn2nc(-c3cc(F)c4nc(N5CCC(N(C)C)CC5)oc4c3)cc2c(C)n1` [Compound 497, 1-(6-(4,6-dimethylpyrazolo[1,5-a]pyrazin-2-yl)-4-fluorobenzo[d]oxazol-2-yl)-N,N-dimethylpiperidin-4-amine] showed an IC50 of 100 to 1000 nM.
`Cc1cn2nc(-c3cc(F)c4nc(NC(=O)C5CCNC6CC65)cn4c3)cc(C)c2n1` (stereo not shown) [Compound 271, N-(6-(2,8-dimethylimidazo[1,2-b]pyridazin-6-yl)-8-fluoroimidazo[1,2-a]pyridin-2-yl)-2-azabicyclo[4.1.0] heptane-5-carboxamide] displayed an IC50 below 100 nM.
The molecule `Cc1cn2nc(-c3cc(F)c4[nH]c(C5C6CN(C)CC65)nc4c3)cc(C)c2n1` (stereo not shown) [Compound 430, 6-(7-fluoro-2-(3-methyl-3-azabicyclo[3.1.0]hexan-6-yl)-1H-benzo[d]imidazol-5-yl)-2,8-dimethylimidazo[1,2-b]pyridazine] came in with an IC50 below 100 nM.
`COC1CC1N1CCC(c2cn3cc(-c4cc(C)c5nc(C)cn5n4)cc(F)c3n2)CC1` (stereo not shown) [Compound 205, 6-(8-fluoro-2-(1-(2-methoxycyclopropyl)piperidin-4-yl)imidazo[1,2-a]pyridin-6-yl)-2,8-dimethylimidazo[1,2-b]pyridazine]: the IC50 is 100 to 1000 nM.
To `Cc1cn2nc(-c3cc(F)c4nc(C5CCNCC5)cn4c3)cc(C)c2n1` [Compound 1] belongs below 100 nM; to `Fc1cc(-c2ccn3nc(Br)cc3n2)cn2cc(C3CCNCC3)nc12` [Compound 199, 2-bromo-5-(8-fluoro-2-(piperidin-4-yl)imidazo[1,2-a]pyridin-6-yl)pyrazolo[1,5-a]pyrimidine], 100 to 1000 nM; to `Cn1cc2cc(-c3cc(F)c4nc(CC5CNC5)cn4c3)ccc2n1` [Compound 20, 5-(2-(azetidin-3-ylmethyl)-8-fluoroimidazo[1,2-a]pyridin-6-yl)-2-methyl-2H-indazole], 1000 to 9000 nM.
In turn, `Cc1cc(-c2cc(F)c3nc(C4CCNCC4)cn3c2)nn2ccnc12` [Compound 102, 6-(8-fluoro-2-(piperidin-4-yl)imidazo[1,2-a]pyridin-6-yl)-8-methylimidazo[1,2-b]pyridazine] yielded an IC50 of 100 to 1000 nM.
To `Cc1cn2nc(-c3cc(F)c4nc(N5CCC(N6CCC6)CC5)oc4c3)cc(C)c2n1` [Compound 494, 2-(4-(azetidin-1-yl)piperidin-1-yl)-6-(2,8-dimethylimidazo[1,2-b]pyridazin-6-yl)-4-fluorobenzo[d]oxazole] belongs 100 to 1000 nM.
Turning to `Cc1cn2nc(-c3cc(F)c4nc(NC(=O)CC5CNC5)cn4c3)cc(C)c2n1` [Compound 281, 2-(azetidin-3-yl)-N-(6-(2,8-dimethylimidazo[1,2-b]pyridazin-6-yl)-8-fluoroimidazo[1,2-a]pyridin-2-yl)acetamide], the half-maximal inhibitory concentration (IC50) is below 100 nM.
In turn, `Cn1nnc2ccc(-c3cc(F)c4nc(C5CCNCC5)cn4c3)cc21` [Compound 29, 6-(8-fluoro-2-(piperidin-4-yl)imidazo[1,2-a]pyridin-6-yl)-1-methyl-1H-benzo[d][1,2,3]triazole] came in with an IC50 of 100 to 1000 nM.
As for `CCc1nc(C)cn2cc(-c3cc(F)c4nc(C5CCN(CC)CC5)cn4c3)cc12` [Compound 175, 6-(1-ethyl-3-methylpyrrolo[1,2-a]pyrazin-7-yl)-2-(1-ethylpiperidin-4-yl)-8-fluoroimidazo[1,2-a]pyridine], the figure is 100 to 1000 nM; as for `Cn1ncc2cc(-c3cc(F)c4nc(C5CCNCC5)cn4c3)cc(F)c21` [Compound 104, 7-fluoro-5-(8-fluoro-2-(piperidin-4-yl)imidazo[1,2-a]pyridin-6-yl)-1-methyl-1H-indazole], 1000 to 9000 nM.
Molecule `Cc1cn2nc(-c3cc(F)c4nc(C5CCNC(C)(C)C5)cn4c3)ccc2n1` (stereo not shown) [Compound 62, 6-(2-(2,2-dimethylpiperidin-4-yl)-8-fluoroimidazo[1,2-a]pyridin-6-yl)-2-methylimidazo[1,2-b]pyridazine] yielded an IC50 below 100 nM.
`COc1cc2cc(-c3cc(F)c4nc(C5CCNCC5)cn4c3)ccc2cn1` [Compound 164, 6-(8-fluoro-2-(piperidin-4-yl)imidazo[1,2-a]pyridin-6-yl)-3-methoxyisoquinoline] had an IC50 of 100 to 1000 nM.
With `Cc1cn2cc(-c3cc(F)c4nc(C5CCNCC5)cn4c3)ccc2n1` [Compound 96, 8-fluoro-2′-methyl-2-(piperidin-4-yl)-6,6′-biimidazo[1,2-a]pyridine], the IC50 fell in the range of 1000 to 9000 nM.
As to `Cc1cn2nc(-c3cc(F)c4nc(C5CCNCC5)nn4c3)cc(C)c2n1` [Compound 150, 6-(2,8-dimethylimidazo[1,2-b]pyridazin-6-yl)-8-fluoro-2-(4-piperidyl)-[1,2,4]triazolo[1,5-a]pyridine], the IC50 was below 100 nM.
To `Cc1cn2nc(-c3cc(F)c4nc(NC(=O)C5CN(C)C5)cn4c3)cc(C)c2n1` [Compound 257, N-(6-(2,8-dimethylimidazo[1,2-b]pyridazin-6-yl)-8-fluoroimidazo[1,2-a]pyridin-2-yl)-1-methylazetidine-3-carboxamide] belongs below 100 nM.
As for `Cc1cn2nc(-c3cc(F)c4nc(C56CC(C5)N(C)C6)cn4c3)cc(C)c2n1` [Compound 80], the figure is 100 to 1000 nM.
On to `Fc1cc(-c2ccc3nscc3c2)cn2cc(C3CCNCC3)nc12` [Compound 33, 5-(8-fluoro-2-(piperidin-4-yl)imidazo[1,2-a]pyridin-6-yl)benzo[c]isothiazole], for which the IC50 fell in the range of 1000 to 9000 nM.
In turn, `Cc1cn2nc(-c3cc(F)c4nc(N5CCCC(N(C)C)C5)oc4c3)cc(C)c2n1` (stereo not shown) [Compound 500, 1-(6-(2,8-dimethylimidazo[1,2-b]pyridazin-6-yl)-4-fluorobenzo[d]oxazol-2-yl)-N,N-dimethylpiperidin-3-amine] came in with an IC50 of 100 to 1000 nM.
With `Cc1cn2nc(-c3cc(F)c4nc(C5CCNCC5)cn4c3)cc(C(F)F)c2n1` [Compound 153, 8-(difluoromethyl)-6-(8-fluoro-2-(piperidin-4-yl)imidazo[1,2-a]pyridin-6-yl)-2-methylimidazo[1,2-b]pyridazine], the concentration for half-maximal inhibition (IC50) is below 100 nM.
To `Cc1cn2cc(-c3cc(F)c4[nH]c(C5CCNCC5)nc4c3)cc(F)c2n1` [Compound 143, 7-fluoro-5-(8-fluoro-2-methylimidazo[1,2-a]pyridin-6-yl)-2-(piperidin-4-yl)-1H-benzo[d]imidazole] belongs 1000 to 9000 nM; to `Cc1cn2nc(-c3cc(F)c4[nH]c(C5CCC6(CC5)CNC6)nc4c3)cc(C)c2n1` [Compound 424, 6-(7-fluoro-2-(2-azaspiro[3.5]nonan-7-yl)-1H-benzo[d]imidazol-5-yl)-2,8-dimethylimidazo[1,2-b]pyridazine], 100 to 1000 nM.
`Cc1cn2nc(-c3cc(F)c4nn(C5CCN(C)CC5)nc4c3)cc(C)c2n1` [Compound 380, 6-(2,8-dimethylimidazo[1,2-b]pyridazin-6-yl)-4-fluoro-2-(1-methyl-4-piperidyl)benzotriazole]: the IC50 was 100 to 1000 nM.
For `Cc1cn2nc(-c3cc(F)c4nc([C@H]5[C@@H]6CN(C)C[C@@H]65)cn4c3)cc(C)c2n1` [Compound 185, 6-[8-fluoro-2-[(1S,5R)-3-methyl-3-azabicyclo[3.1.0]hexan-6-yl]imidazo[1,2-a]pyridin-6-yl]-2,8-dimethyl-imidazo[1,2-b]pyridazine], the concentration for half-maximal inhibition (IC50) was below 100 nM.
As for `Cc1cn2cc(-c3cc(F)c4nc(CC5CCCNC5)cn4c3)cc(F)c2n1` (stereo not shown) [Compound 15, 8,8′-difluoro-2-methyl-2′-(piperidin-3-ylmethyl)-6,6′-biimidazo[1,2-a]pyridine], the figure is 100 to 1000 nM; as for `Cc1cn2nc(-c3cc(F)c4nc(NC(=O)C5CC56CCNC6)cn4c3)cc(C)c2n1` (racemic) [Compound 253, N-(6-(2,8-dimethylimidazo[1,2-b]pyridazin-6-yl)-8-fluoroimidazo[1,2-a]pyridin-2-yl)-5-azaspiro[2.4]heptane-1-carboxamide], 100 to 1000 nM; as for `Cc1cn2nc(-c3cc(F)c4nc(NC5CCN(C6CCOC6)CC5)oc4c3)cc(C)c2n1` (stereo not shown) [Compound 481, 6-(2,8-dimethylimidazo[1,2-b]pyridazin-6-yl)-4-fluoro-N-(1-(tetrahydrofuran-3-yl)piperidin-4-yl)benzo[d]oxazol-2-amine], below 100 nM.
As for `Cc1cn2nc(-c3cc(F)c4nc(C5(F)CCNCC5)cn4c3)cc(C)c2n1` [Compound 158, 6-(8-fluoro-2-(4-fluoropiperidin-4-yl)imidazo[1,2-a]pyridin-6-yl)-2,8-dimethylimidazo[1,2-b]pyridazine], the figure is below 100 nM.
On to `Cc1cn2nc(-c3cc(OC(F)F)c4nc(C5CCNCC5)cn4c3)cc(C)c2n1` [Compound 537, 6-[8-(difluoromethoxy)-2-(4-piperidyl)imidazo[1,2-a]pyridin-6-yl]-2,8-dimethyl-imidazo[1,2-b]pyridazine], for which the 50% inhibitory concentration (IC50) was below 100 nM.
The molecule `Cn1cc2cc(-c3cc(F)c4nc(C56CCNC(C5)C6)cn4c3)cc(F)c2n1` [Compound 75] showed an IC50 of 1000 to 9000 nM.
Regarding `COc1cc(-c2cc(F)c3nc(NC(=O)C4CN(C(C)C)C4)cn3c2)nn2nc(C)nc12` [Compound 296, N-(8-fluoro-6-(8-methoxy-2-methyl-[1,2,4]triazolo[1,5-b]pyridazin-6-yl)imidazo[1,2-a]pyridin-2-yl)-1-isopropylazetidine-3-carboxamide], the half-maximal inhibitory concentration (IC50) is below 100 nM.
To `Cn1cc2c(F)cc(-c3cc(F)c4nc(C5CCNCC5)cn4c3)cc2n1` [Compound 86, 4-fluoro-6-(8-fluoro-2-(piperidin-4-yl)imidazo[1,2-a]pyridin-6-yl)-2-methyl-2H-indazole] belongs 1000 to 9000 nM; to `Cc1nc2c(C)cc(-c3cc(F)c4nc(C5CCN(C)CC5)cn4c3)nn2n1` [Compound 224], below 100 nM; to `Cc1cn2nc(-c3cc(F)c4nc(C5CCN(CC6CC6)CC5)nn4c3)cc(C)c2n1` [Compound 438, 2-(1-(cyclopropylmethyl)piperidin-4-yl)-6-(2,8-dimethylimidazo[1,2-b]pyridazin-6-yl)-8-fluoro-[1,2,4]triazolo[1,5-a]pyridine], 100 to 1000 nM.
